Like-named read-outs stand apart in the source and are kept apart here. Each block holds one molecule with its values, some of them ahead of it. Positions of bridges follow the written chain, without caps; N, C: chain ends. Residues, ends and D or L forms follow the SMILES beside them. *: point of attachment. For = O=C*
Experiments:
chick N-cadherin = target: T1, chick N-cadherin (Gallus gallus, UniProt P10288); experiment: Neurite outgrowth of rat cerebellar neurons on N-cadherin expressing 3T3 monolayers (Example 15); format: cell-based; settings: for inhibitory activity on N-cadherin dependent neurite outgrowth, structure/activity statements: Tables 8 and 9; for inhibition at 125 µg/mL: 125 μg/mL; for inhibition at 125 µg/mL / inhibition at 250 µg/mL: 16-18 hours, read-out: % Inhibition of N-Cadherin Dependent Neurite Outgrowth; for reduction in inhibitory activity on flanking HAV with E-cadherin amino acids: 250 μg/mL (Table 8); for inhibition of N-cadherin dependent neurite outgrowth (in words) / inhibition at 250 µg/mL: 250 μg/mL; for activity on N-cadherin dependent neurite outgrowth (in words): 125 micrograms/mL or below
T1 construct: expressed in transfected cells; host or cells: 3T3 fibroblasts (monolayer); rat post-natal day 2-3 cerebellar neurons plated on top
T1 sequence (P10288 165-912): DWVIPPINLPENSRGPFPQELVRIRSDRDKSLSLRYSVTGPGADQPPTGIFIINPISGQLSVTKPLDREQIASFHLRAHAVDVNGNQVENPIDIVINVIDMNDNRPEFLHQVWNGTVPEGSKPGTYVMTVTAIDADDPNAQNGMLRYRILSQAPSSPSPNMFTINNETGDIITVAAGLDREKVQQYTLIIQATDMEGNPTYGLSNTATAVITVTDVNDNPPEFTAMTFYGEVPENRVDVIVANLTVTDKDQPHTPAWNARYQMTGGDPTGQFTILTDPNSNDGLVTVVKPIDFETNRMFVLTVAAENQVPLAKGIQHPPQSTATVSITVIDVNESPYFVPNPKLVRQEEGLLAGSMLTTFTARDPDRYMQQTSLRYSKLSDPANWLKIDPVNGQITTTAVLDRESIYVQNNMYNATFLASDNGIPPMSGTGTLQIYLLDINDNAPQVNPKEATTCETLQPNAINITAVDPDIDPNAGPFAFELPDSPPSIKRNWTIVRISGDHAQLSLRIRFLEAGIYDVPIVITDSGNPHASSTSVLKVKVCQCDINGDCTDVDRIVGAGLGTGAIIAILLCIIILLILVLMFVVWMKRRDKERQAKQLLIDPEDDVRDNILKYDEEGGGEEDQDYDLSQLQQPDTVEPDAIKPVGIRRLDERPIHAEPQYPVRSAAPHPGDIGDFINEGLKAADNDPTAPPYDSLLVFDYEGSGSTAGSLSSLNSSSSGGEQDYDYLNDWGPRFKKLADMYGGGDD
Method: Cell culture and neurite outgrowth assays. Co-cultures of cerebellar neurons on monolayers of control 3T3 cells and monolayers of transfected 3T3 cells that express physiological levels of chick N-cadherin or human L1 were established as previously described (Williams et al., Neuron 13:583-594, 1994). In brief, 80,000 3T3 cells (control and transfected) were plated into individual chambers of an eight-chamber tissue culture slide coated with polylysine and fibronectin and cultured in DMEM/10% FCS. After 24 hours, when confluent monolayers had formed, the medium was removed and 3000 cerebellar neurons isolated from post-natal day 2-3 rats were plated into each well in SATO media (Doherty et al., Nature 343:464-466, 1990) supplemented with 2% FCS. All of the test peptides were added immediately before the neurons as a 2× stock prepared in SATO/2% FCS. The co-cultures were maintained for 16-18 hours, at which time they were fixed and immunostained for GAP-43 which is present only in the neurons and delineates the neuritic processes. The mean length of the longest neurite per cell was measured for 150-200 neurons sampled in replicate cultures as previously described (Williams et al., Neuron 13:583-594, 1994). […] Dose-response curves were evaluated and the EC50 values determined.

N-cadherin = target: T2, N-cadherin (Gallus gallus, UniProt P10288); experiment: Neurite outgrowth inhibition, rat neurons (Example 21); format: cell-based; settings: 500 μg/mL
T2 construct: expressed in transfected cells; host or cells: 3T3 fibroblasts (monolayer)
T2 sequence (P10288 165-912): T1 sequence (P10288 165-912)

[1] = test system: Madin Darby canine kidney (MDCK) cells; format: cell-based; settings: for EC50, decrease of electrical resistance across MDCK cell monolayer: 18 hours
Method: Yet another assay evaluates the effect of a modulating agent on the electrical resistance across a monolayer of cells. For example, Madin Darby canine kidney (MDCK) cells can be exposed to the modulating agent dissolved in medium (e.g., at a final concentration of 0.5 mg/ml for a period of 24 hours). The effect on electrical resistance can be measured using standard techniques. This assay evaluates the effect of a modulating agent on tight junction formation in epithelial cells. In general, the presence of 500 μg/mL modulating agent should result in a statistically significant decrease in electrical resistance after 24 hours.
Madin Darby canine kidney (MDCK) cells were plated in Millicells (Millipore, Bedford, Mass.), at a density of 300,000 cells per Millicell, and cultured in Dulbecco's Modified Eagle Medium (DMEM; Sigma, St. Louis, Mo.) containing 5% fetal calf serum (Sigma, St. Louis, Mo.) until monolayers formed. Monolayers were exposed to the modulating agent dissolved in medium. The electrical resistance was measured using the EVOM device (World Precision Instruments, Sarasota, Fla.). At the time of measurement, fresh medium, with or without the modulating agent, may be added to the Millicells.

WI-38 = format: cell-based, human; settings: 3 h
Method: (§1) N—Ac-CHAVC-NH2 (SEQ ID NO:10) and the control peptide N—Ac-CHGVC-NH2 (SEQ ID NO:11) were evaluated for possible cytotoxic effects on human microvascular endothelial (HMVEC; Clonetics), human umbilical vein endothelial (HUVEC; ATCC #CRL-1730), IAFp2 (human fibroblast cell line; Institute Armand-Frapier, Montreal, Quebec), WI-38 (human fibroblast cell line; ATCC #CCL-75), MDA-MB231 (human breast cancer cell line; ATCC #HTB-26), and PC-3 (human prostate cancer cell line; ATCC #CRL-1435) cells utilizing the MTT assay (Plumb et al., Cancer Res. 49:4435-4440, 1989). Neither of the peptides was cytotoxic at concentrations up to and including 100 μM. Similarly, neither of the peptides was capable of inhibiting the proliferation of the above cell lines at concentrations up to 100 μM, as judged by ^3H-thymidine incorporation assays.

HUVEC = format: cell-based, human; settings: 3 h
Method: as §1

PC-3 [2] = format: cell-based, human; settings: 3 h
Method: as §1

MDA-MB231 [3] = format: cell-based, human; settings: 3 h
Method: as §1

IAFp2 = format: cell-based, human; settings: 3 h
Method: as §1

HMVEC = format: cell-based, human; settings: 3 h
Method: as §1

MDA-MB231 [4] = experiment: Cytotoxicity, MTT assay, MDA-MB231; format: cell-based, human
Method: as §1

PC-3 [5] = experiment: Cytotoxicity, MTT assay, PC-3; format: cell-based, human
Method: as §1

Molecule: N—Ac—CRAHAVDC—NH2: cyclic peptide, SEQ ID NO:28 (Ac-CRAHAVDC-NH2; disulfide 1-8 (inferred))
inhibitory activity on N-cadherin dependent neurite outgrowth, structure/activity statements (chick N-cadherin): completely eliminated inhibitory activity
inhibition of neurite outgrowth (N-cadherin): (inhibition observed

Molecule: CC(=O)N[C@H]1CSSC[C@@H](C(N)=O)NC(=O)[C@@H]2CCCN2C(=O)[C@H](C(C)C)NC(=O)[C@H](C)NC(=O)[C@H](Cc2c[nH]cn2)NC1=O [N—Ac—CHAVPC—NH2] (Ac-CHAVPC-NH2; disulfide 1-6)
inhibition at 125 µg/mL (chick N-cadherin): 58 ± 4.3%
inhibitory activity on N-cadherin dependent neurite outgrowth, structure/activity statements (chick N-cadherin): potent inhibitors

Molecule: N—Ac—CSHAVSC—NH2: cyclic peptide, SEQ ID NO:40 (Ac-CSHAVSC-NH2; disulfide 1-7 (inferred))
reduction in inhibitory activity on flanking HAV with E-cadherin amino acids (chick N-cadherin): complete
EC50, decrease of electrical resistance across MDCK cell monolayer [1]: INACTIVE

Molecule: N—Ac—CLFSHAVC—NH2 (Ac-CLFSHAVC-NH2; disulfide 1-8 (inferred))
effect on electrical resistance across MDCK cells (in words) [1]: loss of activity in this assay
EC50, decrease of electrical resistance across MDCK cell monolayer [1]: INACTIVE

Molecule: N—Ac—CAHAVC—NH2: cyclic peptide, SEQ ID NO:22 (Ac-CAHAVC-NH2; disulfide 1-6 (inferred))
inhibition of N-cadherin dependent neurite outgrowth (in words) (chick N-cadherin): potent inhibitors of neurite outgrowth
activity on N-cadherin dependent neurite outgrowth (in words) (chick N-cadherin): lost activity
inhibitory activity on N-cadherin dependent neurite outgrowth, structure/activity statements (chick N-cadherin): little affect

Molecule: N—Ac—CHAVCE—NH2: cyclic peptide, SEQ ID NO:92 (Ac-CHAVCE-NH2; disulfide 1-5 (inferred))
EC50, decrease of electrical resistance across MDCK cell monolayer [1]: INACTIVE

Molecule: CC(C)[C@@H]1NC(=O)[C@H](C)NC(=O)[C@H](Cc2c[nH]cn2)NC(=O)[C@@H](NC=O)CSSC[C@@H](C(=O)N[C@@H](CO)C(N)=O)NC1=O [H—C(O)—NH—CHAVCS—NH2] (For-CHAVCS-NH2; disulfide 1-5 (inferred))
inhibition at 250 µg/mL (chick N-cadherin): 75.8 ± 5.6%

Molecule: CC(=O)N[C@H]1CSSC[C@@H](C(N)=O)NC(=O)[C@H](Cc2c[nH]cn2)NC(=O)CNC(=O)[C@H](C(C)C)NC1=O [N—Ac—CVGHC—NH2] (Ac-CVGHC-NH2; disulfide 1-5)
IC50 (WI-38): > 100 µM
IC50 (HUVEC): 30 µM
IC50 (PC-3 [2]): > 100 µM
IC50 (MDA-MB231 [3]): > 100 µM
IC50 (IAFp2): > 100 µM
IC50 (HMVEC): > 100 µM
IC50 (MDA-MB231 [4]): > 100 µM
IC50 (PC-3 [5]): > 100 µM

Molecule: N—Ac—CLRAHAVC—NH2: cyclic peptide, SEQ ID NO:30 (Ac-CLRAHAVC-NH2; disulfide 1-8 (inferred))
inhibitory activity on N-cadherin dependent neurite outgrowth, structure/activity statements (chick N-cadherin): detrimental affect

Molecule: CC(=O)N[C@H]1CSSC[C@@H](C(N)=O)NC(=O)[C@H](CC(=O)O)NC(=O)[C@H](C(C)C)NC(=O)CNC(=O)[C@H](Cc2c[nH]cn2)NC(=O)[C@H](C)NC1=O [N—Ac—CAHGVDC—NH2] (Ac-CAHGVDC-NH2; disulfide 1-7)
IC50 (WI-38): > 100 µM
IC50 (HUVEC): > 100 µM
IC50 (PC-3 [2]): > 100 µM
IC50 (MDA-MB231 [3]): > 100 µM
IC50 (IAFp2): > 100 µM
IC50 (HMVEC): > 100 µM
IC50 (MDA-MB231 [4]): > 100 µM
IC50 (PC-3 [5]): > 100 µM

Molecule: CC(=O)N[C@H]1CSSC[C@@H](C(N)=O)NC(=O)[C@H](Cc2ccc(O)cc2)NC(=O)[C@H](C(C)C)NC(=O)[C@H](C)NC(=O)[C@H](Cc2c[nH]cn2)NC1=O [N—Ac—CHAVYC—NH2] (Ac-CHAVYC-NH2; disulfide 1-6)
inhibition at 125 µg/mL (chick N-cadherin): 64.9 ± 1.9%
inhibition at 250 µg/mL (chick N-cadherin): 64.9%
inhibitory activity on N-cadherin dependent neurite outgrowth, structure/activity statements (chick N-cadherin): potent inhibitors

Continued, in another order:

inhibitory activity on N-cadherin dependent neurite outgrowth, structure/activity statements (chick N-cadherin): completely abrogates activity
Molecule: N—Ac—CHAVDINGC—NH2: cyclic peptide, SEQ ID NO:76 (Ac-CHAVDINGC-NH2; disulfide 1-9 (inferred))

inhibition of N-cadherin dependent neurite outgrowth (in words) (chick N-cadherin): potent inhibitors of neurite outgrowth
activity on N-cadherin dependent neurite outgrowth (in words) (chick N-cadherin): lost activity
inhibitory activity on N-cadherin dependent neurite outgrowth, structure/activity statements (chick N-cadherin): partial recovery of activity
Molecule: N—Ac—CLRAHAVDC—NH2: cyclic peptide, SEQ ID NO:32 (Ac-CLRAHAVDC-NH2; disulfide 1-9 (inferred))

reduction in inhibitory activity on flanking HAV with E-cadherin amino acids (chick N-cadherin): substantial
Molecule: N—Ac—CHAVSSC—NH2: cyclic peptide, SEQ ID NO:44 (Ac-CHAVSSC-NH2; disulfide 1-7 (inferred))
EC50, decrease of electrical resistance across MDCK cell monolayer [1]: INACTIVE

inhibition at 250 µg/mL (chick N-cadherin): 74.7 ± 10.5%
Molecule: CC(C)[C@@H]1NC(=O)[C@H](C)NC(=O)[C@H](Cc2c[nH]cn2)NC(=O)[C@@H](NS(C)(=O)=O)CSSC[C@@H](C(N)=O)NC1=O [CH3—SO2—NH—CHAVC—NH2]
effect on electrical resistance across MDCK cells (in words) [1]: complete loss of activity
EC50, decrease of electrical resistance across MDCK cell monolayer [1]: INACTIVE

% inhibition of N-cadherin dependent neurite outgrowth (chick N-cadherin): 68.8+/−4.1%
Molecule: N—Ac-LRAHAVDING-NH2: linear 10-mer, SEQ ID NO:79 [reference compound]

From US20040106545A1, “Compounds and methods for modulating cell adhesion” (priority 1996, published 2004)
